Laboratory results taken from PubChem BioAssay AID330 (DTP/NCI, 2004).
“And” between values parts separate entries of the source, which are not always exact repeats. Identical values can stand only once. Toxic doses and inconclusive results are not listed. How the source made its calls: active means survival T/C of 150% or more; inactive means T/C below 125% in these data.

Tested on: P388 leukemia ip, CD2F1 mice, survival T/C
Test: NCI In Vivo Anticancer Drug Screen. Data for tumor model P388 Leukemia (intraperitoneal) in CD2F1 (CDF1) mice
Conditions: endpoint: median survival time, higher = longer survival
Outline: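 Mice carrying the transplanted tumor received test compound or vehicle. Survival was recorded in each group, and the value is the treated-group measurement divided by that of the vehicle-treated control group.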

[1] = dose: 50.0 mg/kg/injection, schedule: Q01DX009 (ip), vehicle: Klucel (hydroxypropylcellulose) (HPC)
[2] = dose: 100.0 mg/kg/injection, schedule: Q01DX009 (ip), vehicle: Klucel (hydroxypropylcellulose) (HPC)
[3] = dose: 200.0 mg/kg/injection, schedule: Q01DX009 (ip), vehicle: Klucel (hydroxypropylcellulose) (HPC)
[4] = dose: 50.0 mg/kg/injection, schedule: Q01DX009 (ip), vehicle: saline with Tween-80
[5] = dose: 100.0 mg/kg/injection, schedule: Q01DX009 (ip), vehicle: saline with Tween-80
[6] = dose: 200.0 mg/kg/injection, schedule: Q01DX009 (ip), vehicle: saline with Tween-80
[7] = dose: 100.0 mg/kg/injection, schedule: Q01DX009 (ip), vehicle: saline
[8] = dose: 200.0 mg/kg/injection, schedule: Q01DX009 (ip), vehicle: saline
[9] = dose: 50.0 mg/kg/injection, schedule: Q01DX009 (ip), vehicle: saline

Measured: T/C

CN1C(c2ccncc2)=NCC12CCCCC2
inactive: dose: 6.25 mg/kg/injection, schedule: Q01DX005 (ip), vehicle: saline 97 % of control | dose: 12.5 mg/kg/injection, schedule: Q01DX005 (ip), vehicle: saline 100 % of control | dose: 12.5 mg/kg/injection, schedule: Q04DX002 (ip), vehicle: saline 106 % of control | dose: 25.0 mg/kg/injection, schedule: Q01DX005 (ip), vehicle: saline 95 % of control | dose: 25.0 mg/kg/injection, schedule: Q04DX002 (ip), vehicle: saline 106 % of control

CCCCCCCCCCCCOC(=O)c1ccc(N)cc1
inactive: [1] 98 % of control | [2] 101 % of control | [3] 95 % of control

O=C(NC(Cc1cnc[nH]1)C(=O)O)c1ccccc1 (stereo unspecified)
inactive: [4] 92 % of control | [5] 98 % of control | [6] 98 % of control

N#CN1C2CCC1CC(O)(c1ccccc1)C2 (stereo unspecified)
inactive: dose: 50.0 mg/kg/injection, schedule: Q01DX005 (ip), vehicle: saline with Tween-80 104 % of control and 99 % of control | dose: 100.0 mg/kg/injection, schedule: Q01DX005 (ip), vehicle: saline with Tween-80 102 % of control | dose: 200.0 mg/kg/injection, schedule: Q01DX005 (ip), vehicle: saline with Tween-80 103 % of control

O=C1CCC(=O)N1CO
inactive: dose: 37.5 mg/kg/injection, schedule: Q01DX009 (ip), vehicle: saline with Tween-80 107 % of control | dose: 75.0 mg/kg/injection, schedule: Q01DX009 (ip), vehicle: saline with Tween-80 120 % of control

O=c1nc(-c2ccc3c(c2)OCO3)sc(=O)[nH]1
inactive: [4] 111 % of control | [5] 107 % of control | [6] 112 % of control

CC1(C)CC(=O)C2OC21 (stereo unspecified)
inactive: dose: 100.0 mg/kg/injection, schedule: Q04DX002 (ip), vehicle: saline 107 % of control and 95 % of control | dose: 200.0 mg/kg/injection, schedule: Q04DX002 (ip), vehicle: saline 101 % of control | dose: 400.0 mg/kg/injection, schedule: Q04DX002 (ip), vehicle: saline 106 % of control and 107 % of control

CC1=C(C)SC(=S)NN1
inactive: dose: 3.12 mg/kg/injection, schedule: Q01DX009 (ip), vehicle: saline 96 % of control | dose: 6.25 mg/kg/injection, schedule: Q01DX009 (ip), vehicle: saline 100 % of control | dose: 12.5 mg/kg/injection, schedule: Q01DX009 (ip), vehicle: saline 100 % of control

CC1=CC[C@H]2C(=O)N(CCN(C)C)C(=O)[C@H]2C1
inactive: dose: 50.0 mg/kg/injection, schedule: Q01DX005 (ip), vehicle: saline 100 % of control | dose: 100.0 mg/kg/injection, schedule: Q01DX005 (ip), vehicle: saline 100 % of control | dose: 200.0 mg/kg/injection, schedule: Q01DX005 (ip), vehicle: saline 98 % of control

COc1cccc2c1C(=O)c1c(O)c3c(c(O)c1C2=O)CC(O)(C(C)=O)CC3OC1CC(NCC2(O)OCC(O)C(OC3OC(CO)C(O)C(O)C3O)C2O)C(O)C(C)O1 (stereo unspecified)
inactive: dose: 1.56 mg/kg/injection, schedule: Q04DX003 (ip), vehicle: water 100 % of control | dose: 3.12 mg/kg/injection, schedule: Q04DX003 (ip), vehicle: water 98 % of control and 99 % of control | dose: 3.13 mg/kg/injection, schedule: Q04DX003 (ip), vehicle: water 95 % of control | dose: 6.25 mg/kg/injection, schedule: Q04DX003 (ip), vehicle: water 99 % of control and 102 % of control and 103 % of control | dose: 12.5 mg/kg/injection, schedule: Q04DX003 (ip), vehicle: water 100 % of control | dose: 25.0 mg/kg/injection, schedule: Q04DX003 (ip), vehicle: water 105 % of control and 108 % of control and 119 % of control | dose: 50.0 mg/kg/injection, schedule: Q04DX003 (ip), vehicle: water 119 % of control

O=C(/C=N/O)Nc1ccccc1I
inactive: dose: 50.0 mg/kg/injection, schedule: Q01DX005 (ip), vehicle: Klucel (hydroxypropylcellulose) (HPC) 100 % of control | dose: 100.0 mg/kg/injection, schedule: Q01DX005 (ip), vehicle: Klucel (hydroxypropylcellulose) (HPC) 98 % of control | dose: 200.0 mg/kg/injection, schedule: Q01DX005 (ip), vehicle: Klucel (hydroxypropylcellulose) (HPC) 115 % of control

CC1C(c2ccccc2)OCCN1C(N)=S (stereo unspecified)
inactive: [1] 108 % of control | [2] 101 % of control | [3] 101 % of control

S=C(NC12CC3CC(CC(C3)C1)C2)[NH][Sn]([c]1ccccc1)([c]1ccccc1)[c]1ccccc1
inactive: dose: 0.78 mg/kg/injection, schedule: Q01DX009 (ip), vehicle: saline 92 % of control | dose: 1.56 mg/kg/injection, schedule: Q01DX009 (ip), vehicle: saline 96 % of control | dose: 3.13 mg/kg/injection, schedule: Q01DX009 (ip), vehicle: saline 100 % of control | dose: 12.5 mg/kg/injection, schedule: Q01DX009 (ip), vehicle: saline with Tween-80 117 % of control

COc1ccccc1C(O)c1cnc(C)n1Cc1ccccc1 (stereo unspecified)
inactive: dose: 60.0 mg/kg/injection, schedule: Q01DX005 (ip), vehicle: saline with Tween-80 98 % of control | dose: 120.0 mg/kg/injection, schedule: Q01DX005 (ip), vehicle: saline with Tween-80 107 % of control | dose: 240.0 mg/kg/injection, schedule: Q01DX005 (ip), vehicle: saline with Tween-80 97 % of control

CCCCC(O)(c1ccc2nc(NC(=O)OC)[nH]c2c1)c1cccs1 (stereo unspecified)
inactive: dose: 25.0 mg/kg/injection, schedule: Q01DX005 (ip), vehicle: other 110 % of control | dose: 50.0 mg/kg/injection, schedule: Q01DX005 (ip), vehicle: other 107 % of control | dose: 100.0 mg/kg/injection, schedule: Q01DX005 (ip), vehicle: other 110 % of control | dose: 200.0 mg/kg/injection, schedule: Q01DX005 (ip), vehicle: other 104 % of control

CSc1cccc([N+](=O)[O-])c1
inactive: [7] 95 % of control | [8] 87 % of control

C=C(C)C(=O)OCCC[Si](OCCOC)(OCCOC)OCCOC
inactive: [9] 95 % of control | [7] 95 % of control | [8] 106 % of control

c1ccc2c(c1)[nH]c1nc3ncncc3nc12
inactive: [9] 100 % of control | [7] 100 % of control | [8] 100 % of control

CC(=O)Oc1cc2nc3ccccc3nc2cc1N(C)C
inactive: [9] 99 % of control | [7] 90 % of control | [8] 100 % of control

C=CCN1C(=O)NC(=O)C(c2ccccc2)C1=O (stereo unspecified)
inactive: [1] 98 % of control | [2] 100 % of control | [3] 92 % of control
